Structures are written as SMILES.

One assay concerns the target T1, SPD1098 SBD2 (GlnP) (Streptococcus pneumoniae, UniProt A0A0H2ZPN9).
T1 construct: gene SPD_1098
T1 sequence (A0A0H2ZPN9 262-488): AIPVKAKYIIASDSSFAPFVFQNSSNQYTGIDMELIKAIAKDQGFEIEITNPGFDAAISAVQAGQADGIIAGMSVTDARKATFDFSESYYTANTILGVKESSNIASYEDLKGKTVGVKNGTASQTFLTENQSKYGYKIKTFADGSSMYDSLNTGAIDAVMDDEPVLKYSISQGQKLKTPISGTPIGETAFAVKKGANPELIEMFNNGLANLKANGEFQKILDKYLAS
The assay can be described thus: isothermal titration calorimetry. The assay is classed as binding. The source says:
isothermal titration calorimetry on SPD1098 SBD2 (GlnP)

The target of another assay is T2, SPD1098 SBD1 (GlnP) (Streptococcus pneumoniae, UniProt A0A0H2ZPN9).
T2 construct: gene SPD_1098
T2 sequence (A0A0H2ZPN9 24-247): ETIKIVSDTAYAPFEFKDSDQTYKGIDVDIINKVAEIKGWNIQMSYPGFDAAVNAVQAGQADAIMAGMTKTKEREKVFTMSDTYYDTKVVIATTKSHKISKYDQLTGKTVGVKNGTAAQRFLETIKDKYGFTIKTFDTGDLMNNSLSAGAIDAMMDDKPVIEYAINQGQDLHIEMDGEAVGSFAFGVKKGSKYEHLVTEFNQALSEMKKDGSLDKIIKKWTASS
As to the kind of experiment: isothermal titration calorimetry. Format: binding. An excerpt:
isothermal titration calorimetry on SPD1098 SBD1 (GlnP)
A general note: In ITC the heat of successive injections is recorded.

Regarding `NC(=O)CC[C@H](N)C(=O)O` [glutamine], binding at SPD1098 SBD2 (GlnP) was characterised by a dissociation constant (Kd) of 890 nM.

With `NC(=O)C[C@H](N)C(=O)O` [asparagine], the dissociation constant (Kd) (usually the concentration at which binding is half-saturated) on SPD1098 SBD1 (GlnP) was determined as 1090 nM.

(Values after PMC10286718, “Amino Acid Starvation-Induced Glutamine Accumulation Enhances Pneumococcal Survival” (mSphere, 2023).)
